From patent US5364870A (priority 1993, dated 1994)

Experiments:
Test in all cases: whole plant or invertebrate
Type in all cases: in vivo
[1] = system: rice sheath blight (Pellicularia filamentosa f. sp. sasiki); details: Oryza sativa, 120 h, read-out: % Control RSB (percent disease control)
[2] = system: wheat stem rust (Puccinia graminis f. sp. tritici Race 15B-2); details: 336 h, read-out: % Control WSR (percent disease control)
[3] = system: cucumber downy mildew (Pseudoperonospora cubensis); details: 168 h, read-out: % Control CDM (percent disease control)
[4] = system: rice blast (Piricularia oryzae); details: Pyricularia oryzae, 192 h, read-out: % Control RB (percent disease control)
[5] = system: wheat powdery mildew (Erysiphe graminis f. sp. tritici); details: Blumeria graminis, read-out: % Control WPM (percent disease control)

SMILES | pest or weed control at 200 ppm [1] | pest or weed control at 200 ppm [2] | pest or weed control at 200 ppm [3] | pest or weed control at 200 ppm [4] | pest or weed control at 200 ppm [5]
CCCCC(CNC=O)(Cn1cncn1)c1ccc(Cl)cc1 (stereo not shown) [Example 1, N-(2-(4-Chlorophenyl)-2-[(1,2,4-triazol-1-yl)methyl]hexyl)formamide] | 0% | 0% | 0% | 0% | 80%
CCCCC(C=O)(Cn1cncn1)c1ccc(Cl)cc1 (stereo not shown) [Example 3, 2-(4-Chlorophenyl)-2-[(1,2,4-triazol-1-yl)methyl]hexanal] | 50% | 100% | 0% | 70% | 100%
CCCCC(Cn1cncn1)(C(=O)N=[N+]=[N-])c1ccc(Cl)cc1 (stereo not shown) [Example 5, 2-(4-Chlorophenyl)-2-[(1,2,4-triazol-1-yl)methyl]hexanoylazide] | 0% | 70% | 20% |  | 100%
C=CC(CCCC)(Cn1cncn1)c1ccc(Cl)cc1 (stereo not shown) [Example 4, 3-(4-Chlorophenyl)-3-[(1,2,4-triazol-1-yl)methyl]-1-heptene] | 60% | 100% | 80% | 80% | 100%
CCCCC(C=NO)(Cn1cncn1)c1ccc(Cl)cc1 (stereo not shown) [Example 6, 2-(4-Chlorophenyl)-(E,Z)-1-hydroxyamino-2-[(1,2,4-triazol-1-yl)methyl]hexanal] | 0% | 100% | 0% | 0% | 100%
CCCCC(Cn1cncn1)(NC(C)=O)c1ccc(Cl)cc1 (stereo not shown) [Example 10, N-[2-(4-Chlorophenyl)-1-(1,2,4-triazol-1-yl)-2-hexyl]acetamide] | 70% | 0% | 0% | 0% | 30%
[C-]#[N+]CC(CCCC)(Cn1cncn1)c1ccc(Cl)cc1 (stereo not shown) [Example 2, 2-(4-Chlorophenyl)-2-[(1,2,4-triazol-1-yl)methyl]hexylisocyanide] | 0% | 100% | 0% | 0% | 80%
CCCCC(Cn1cncn1)(NC=O)c1ccc(Cl)cc1 (stereo not shown) [Example 8, N-[2-(4-Chlorophenyl)-1-(1,2,4-triazol-1-yl)-2-hexyl]formamide] |  | 60% | 0% | 0% | 100%
[C-]#[N+]C(CCCC)(Cn1cncn1)c1ccc(Cl)cc1 (stereo not shown) [Example 9, 2-(4-Chlorophenyl)-1-(1,2,4-triazol-1-yl)-2-hexylisocyanide] | 0% | 90% | 0% | 80% | 100%
